Test results: ChEMBL document CHEMBL5321219, “Selective degradation of cellular BRD3 and BRD4-L promoted by PROTAC molecules in six cancer cell lines” (Eur J Med Chem, 2023)
Calls of active or inactive are those of the source. No cut-off for these calls is given here.

How the values were obtained:
[1] = target: T1, Protein cereblon/Bromodomain-containing protein 2 (Homo sapiens) (UniProt P25440+Q96SW2); experiment: PROTAC activity at CRBN/BRD2 in human HepG2 cells assessed as induction of protein degradation at 10 to 3000 nM measured after 24 hrs by Western blot analysis; format: cell-based; conditions: dose 10-3000 nM
[2] = target: T1, Protein cereblon/Bromodomain-containing protein 2 (Homo sapiens); experiment: PROTAC activity at CRBN/BRD2 in human U-937 cells assessed as induction of protein degradation by Western blot analysis; format: cell-based
[3] = target: T2, Protein cereblon/Bromodomain-containing protein 3 (Homo sapiens) (UniProt Q15059+Q96SW2); experiment: PROTAC activity at CRBN/BRD3 in human HGC-27 cells assessed as induction of protein degradation measured after 24 hrs by Western blot analysis; format: cell-based; conditions: dose 0.1-30 nM
MCF7 = experiment: Antiproliferative activity against human MCF7 cells assessed as cell growth inhibition measured after 4 days by CCK-8 assay; format: functional, cell-based; conditions: MCF7, 96 h
MM1.S [4] = experiment: Induction of cell cycle arrest in human MM1.S cells assessed as accumulation of cells at G2 phase at 300 nM incubated for 24 hrs by flow cytometry analysis (reference value: 14.68%); format: functional
[5] = target: T3, Protein cereblon/Bromodomain-containing protein 4 (Homo sapiens) (UniProt O60885+Q96SW2); experiment: PROTAC activity at CRBN/BRD4-L in human MCF7 cells assessed as induction of protein degradation at 30 nM by Western blot analysis; format: cell-based; conditions: time 1-3 hrs, TDE = time-dependent effect
[6] = target: T3, Protein cereblon/Bromodomain-containing protein 4 (Homo sapiens); experiment: PROTAC activity at CRBN/BRD4-L in human MM1.S cells assessed as induction of protein degradation at 30 nM pretreated with (6R)-N-(4-chlorophenyl)-1-methyl-8-(1-methyl-1H-pyrazol-4-yl)-5,6-dihydro-4H-benzo[f][1,2,4]triazolo[4,3-a]azepin-6-amine for 2 hrs followed by compound addition and measured after 4 hrs by Western blot analysis; format: cell-based
[7] = target: T2, Protein cereblon/Bromodomain-containing protein 3 (Homo sapiens); experiment: PROTAC activity at CRBN/BRD3 in human MM1.S cells assessed as induction of protein degradation at 30 nM pretreated with lenalidomide for 2 hrs followed by compound addition and measured after 4 hrs by Western blot analysis; format: cell-based
MM1.S [8] = experiment: Induction of cell cycle arrest in human MM1.S cells assessed as accumulation of cells at G1 phase at 100 nM incubated for 24 hrs by flow cytometry analysis (reference value: 56.32%); format: functional
[9] = target: T3, Protein cereblon/Bromodomain-containing protein 4 (Homo sapiens); experiment: PROTAC activity at CRBN/BRD4-S in human MM1.S cells assessed as induction of protein degradation at 0.1 to 30 nM measured after 24 hrs by Western blot analysis; format: cell-based; conditions: dose 0.1-30 nM
[10] = target: T3, Protein cereblon/Bromodomain-containing protein 4 (Homo sapiens); experiment: PROTAC activity at CRBN/BRD4-S in human U-937 cells assessed as induction of protein degradation by Western blot analysis; format: cell-based
HeLa = experiment: Antiproliferative activity against human HeLa cells assessed as cell growth inhibition measured after 4 days by CCK-8 assay; format: functional, cell-based; conditions: 96 h
MM1.S [11] = experiment: Induction of cell cycle arrest in human MM1.S cells assessed as accumulation of cells at G2 phase at 30 nM incubated for 24 hrs by flow cytometry analysis (reference value: 14.68%); format: functional
MM1.S [12] = experiment: Downregulation of p21 protein expression in human MM1.S cells at 0.1 to 30 nM measured after 24 hrs by Western blot analysis; format: functional, cell-based; conditions: dose 0.1-30 nM
MM1.S [13] = experiment: Induction of cell cycle arrest in human MM1.S cells assessed as accumulation of cells at S phase at 1 nM incubated for 24 hrs by flow cytometry analysis (reference value: 22.37%); format: functional
[14] = target: T3, Protein cereblon/Bromodomain-containing protein 4 (Homo sapiens); experiment: PROTAC activity at CRBN/BRD4-L in human HGC-27 cells assessed as induction of protein degradation measured after 24 hrs by Western blot analysis; format: cell-based; conditions: dose 0.1-30 nM
[15] = target: T1, Protein cereblon/Bromodomain-containing protein 2 (Homo sapiens); experiment: PROTAC activity at CRBN/BRD2 in human A549 cells assessed as induction of protein degradation at 3 to 1000 nM measured after 24 hrs by Western blot analysis; format: cell-based; conditions: dose 3-1000 nM
MM1.S [16] = experiment: Antiproliferative activity against human MM1.S cells assessed as cell growth inhibition measured after 4 days by CellTitre-Glo assay; format: functional, cell-based; conditions: 96 h
HGC-27 = experiment: Antiproliferative activity against human HGC-27 cells assessed as cell growth inhibition measured after 4 days by CCK-8 assay; format: functional, cell-based; conditions: HGC-27, 96 h
HepG2 = experiment: Antiproliferative activity against human HepG2 cells assessed as cell growth inhibition measured after 4 days by CCK-8 assay; format: functional, cell-based; conditions: HepG2, 96 h
[17] = target: T3, Protein cereblon/Bromodomain-containing protein 4 (Homo sapiens); experiment: PROTAC activity at CRBN/BRD4-L in human MM1.S cells assessed as induction of protein degradation at 30 nM by Western blot analysis; format: cell-based; conditions: TDE = time-dependent effect
MM1.S [18] = experiment: Induction of cell cycle arrest in human MM1.S cells assessed as accumulation of cells at G2 phase at 100 nM incubated for 24 hrs by flow cytometry analysis (reference value: 14.68%); format: functional
[19] = target: T2, Protein cereblon/Bromodomain-containing protein 3 (Homo sapiens); experiment: PROTAC activity at CRBN/BRD3 in human U-937 cells assessed as induction of protein degradation by Western blot analysis; format: cell-based
[20] = target: T2, Protein cereblon/Bromodomain-containing protein 3 (Homo sapiens); experiment: PROTAC activity at CRBN/BRD3 in human MCF7 cells assessed as induction of protein degradation at 30 nM measured after 3 to 6 hrs by Western blot analysis; format: cell-based; conditions: time 3-6 hrs
[21] = target: T2, Protein cereblon/Bromodomain-containing protein 3 (Homo sapiens); experiment: PROTAC activity at CRBN/BRD3 in human MM1.S cells assessed as induction of protein degradation at 2 nM measured after 24 hrs by Western blot analysis; format: cell-based
MM1.S [22] = experiment: Induction of cell cycle arrest in human MM1.S cells assessed as accumulation of cells at G2 phase at 10 nM incubated for 24 hrs by flow cytometry analysis (reference value: 14.68%); format: functional
[23] = target: T2, Protein cereblon/Bromodomain-containing protein 3 (Homo sapiens); experiment: PROTAC activity at CRBN/BRD3 in human MM1.S cells assessed as induction of protein degradation at 30 nM by Western blot analysis; format: cell-based; conditions: TDE = time-dependent effect
MM1.S [24] = experiment: Downregulation of BRD3 expression in human MM1.S cells by proteomic analysis; format: functional, cell-based
[25] = target: T3, Protein cereblon/Bromodomain-containing protein 4 (Homo sapiens); experiment: PROTAC activity at CRBN/BRD4-L in human MM1.S cells assessed as induction of protein degradation at 30 nM pretreated with lenalidomide for 2 hrs followed by compound addition and measured after 4 hrs by Western blot analysis; format: cell-based
[26] = target: T1, Protein cereblon/Bromodomain-containing protein 2 (Homo sapiens); experiment: PROTAC activity at CRBN/BRD2 in human HeLa cells assessed as induction of protein degradation at 1 to 300 nM measured after 24 hrs by Western blot analysis; format: cell-based; conditions: dose 1-300 nM
[27] = target: T3, Protein cereblon/Bromodomain-containing protein 4 (Homo sapiens); experiment: PROTAC activity at CRBN/BRD4-S in human MCF7 cells assessed as induction of protein degradation at 1 to 300 nM measured after 24 hrs by Western blot analysis; format: cell-based; conditions: dose 1-300 nM
[28] = target: T1, Protein cereblon/Bromodomain-containing protein 2 (Homo sapiens); experiment: PROTAC activity at CRBN/BRD2 in human MM1.S cells assessed as induction of protein degradation at 30 nM measured around 24 hrs by Western blot analysis; format: cell-based
[29] = target: T1, Protein cereblon/Bromodomain-containing protein 2 (Homo sapiens); experiment: PROTAC activity at CRBN/BRD2 in human MCF7 cells assessed as induction of protein degradation at 1 to 300 nM measured after 24 hrs by Western blot analysis; format: cell-based; conditions: dose 1-300 nM
[30] = target: T1, Protein cereblon/Bromodomain-containing protein 2 (Homo sapiens); experiment: PROTAC activity at CRBN/BRD2 in human MCF7 cells assessed as induction of protein degradation at 30 nM measured around 24 hrs by Western blot analysis; format: cell-based

T3 sequence (Q96SW2 whole entry, looked up, other chains not shown): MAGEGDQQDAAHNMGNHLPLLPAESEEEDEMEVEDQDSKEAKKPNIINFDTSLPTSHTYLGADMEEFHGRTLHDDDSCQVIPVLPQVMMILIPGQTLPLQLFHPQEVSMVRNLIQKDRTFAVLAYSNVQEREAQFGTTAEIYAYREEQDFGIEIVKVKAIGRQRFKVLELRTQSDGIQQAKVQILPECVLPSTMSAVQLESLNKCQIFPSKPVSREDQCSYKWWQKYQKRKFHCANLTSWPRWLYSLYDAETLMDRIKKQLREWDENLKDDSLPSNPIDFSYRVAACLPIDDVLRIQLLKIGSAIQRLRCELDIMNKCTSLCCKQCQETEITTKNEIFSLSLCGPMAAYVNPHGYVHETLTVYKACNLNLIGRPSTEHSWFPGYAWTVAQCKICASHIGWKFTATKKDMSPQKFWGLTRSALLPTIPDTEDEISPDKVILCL
T1 sequence (P25440 whole entry, looked up): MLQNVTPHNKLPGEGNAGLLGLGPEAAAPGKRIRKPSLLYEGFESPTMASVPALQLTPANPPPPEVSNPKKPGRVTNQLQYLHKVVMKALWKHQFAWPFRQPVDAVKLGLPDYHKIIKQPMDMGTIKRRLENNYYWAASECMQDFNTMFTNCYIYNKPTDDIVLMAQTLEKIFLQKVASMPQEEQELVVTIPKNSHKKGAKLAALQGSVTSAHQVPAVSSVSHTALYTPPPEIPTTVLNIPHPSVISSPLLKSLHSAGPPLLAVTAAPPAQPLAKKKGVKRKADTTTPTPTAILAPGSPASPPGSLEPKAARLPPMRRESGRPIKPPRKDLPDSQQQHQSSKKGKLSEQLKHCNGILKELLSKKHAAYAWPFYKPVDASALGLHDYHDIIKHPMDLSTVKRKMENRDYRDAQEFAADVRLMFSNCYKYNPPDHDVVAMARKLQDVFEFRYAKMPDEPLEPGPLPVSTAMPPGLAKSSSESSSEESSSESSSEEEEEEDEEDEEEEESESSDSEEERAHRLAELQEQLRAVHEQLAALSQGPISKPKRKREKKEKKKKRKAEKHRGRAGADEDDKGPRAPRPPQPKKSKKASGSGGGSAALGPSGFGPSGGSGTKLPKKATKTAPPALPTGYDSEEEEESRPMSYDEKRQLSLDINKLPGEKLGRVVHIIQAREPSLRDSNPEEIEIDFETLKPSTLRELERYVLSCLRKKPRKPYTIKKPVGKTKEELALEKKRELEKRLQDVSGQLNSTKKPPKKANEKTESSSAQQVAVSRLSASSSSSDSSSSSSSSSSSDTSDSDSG
T1 sequence (Q96SW2 whole entry, looked up): as the sequence (Q96SW2 whole entry, looked up, other chains not shown) above
T2 sequence (Q15059 2-726 limits assumed): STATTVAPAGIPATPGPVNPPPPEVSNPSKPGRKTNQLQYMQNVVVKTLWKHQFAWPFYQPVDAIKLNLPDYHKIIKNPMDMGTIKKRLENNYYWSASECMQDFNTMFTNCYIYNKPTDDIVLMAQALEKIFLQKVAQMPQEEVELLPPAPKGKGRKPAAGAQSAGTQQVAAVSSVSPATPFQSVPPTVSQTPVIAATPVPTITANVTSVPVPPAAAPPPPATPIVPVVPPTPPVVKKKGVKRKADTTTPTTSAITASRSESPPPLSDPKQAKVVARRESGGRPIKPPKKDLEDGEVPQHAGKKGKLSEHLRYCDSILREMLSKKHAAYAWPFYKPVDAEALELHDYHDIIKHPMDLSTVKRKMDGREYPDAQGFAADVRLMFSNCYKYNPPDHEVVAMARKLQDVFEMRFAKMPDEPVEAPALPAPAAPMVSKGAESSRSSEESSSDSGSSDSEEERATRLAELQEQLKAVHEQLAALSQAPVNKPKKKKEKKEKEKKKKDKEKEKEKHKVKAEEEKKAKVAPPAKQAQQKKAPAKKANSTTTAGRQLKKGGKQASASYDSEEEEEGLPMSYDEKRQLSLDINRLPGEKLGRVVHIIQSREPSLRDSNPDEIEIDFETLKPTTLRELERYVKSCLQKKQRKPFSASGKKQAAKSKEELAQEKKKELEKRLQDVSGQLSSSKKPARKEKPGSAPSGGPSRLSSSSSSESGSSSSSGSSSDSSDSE
T2 sequence (Q96SW2 whole entry partner): as the sequence (Q96SW2 whole entry, looked up, other chains not shown) above

Cc1nnc2n1-c1ccc(-c3ccc(CNCCCCc4cccc5c4CN(C4CCC(=O)NC4=O)C5=O)cc3)cc1C(Nc1ccc(Cl)cc1)CC2 (centres undefined)
Activity [1]: inactive | Activity [2]: Dose-Dependent Effect | Activity [3]: Dose-Dependent Effect | IC50 (MCF7): 230 nM | Activity (MM1.S [4]): 15.38% | Activity [5]: Tde | Activity [6]: inactive | Activity [7]: inactive | Activity (MM1.S [8]): 65.67% | Activity [9]: inactive | Activity [10]: Dose-Dependent Effect | IC50 (HeLa): 6.96 µM | Activity (MM1.S [11]): 15.18% | Activity (MM1.S [12]): Active | Activity (MM1.S [13]): 21.35% | Activity [14]: Dose-Dependent Effect | Activity [15]: inactive | IC50 (MM1.S [16]): 95.2 nM | IC50 (HGC-27): 2350 nM | IC50 (HepG2): 17.2 µM | Activity [17]: Tde | Activity (MM1.S [18]): 16.63% | Activity [19]: inactive | Activity [20]: Active | Activity [21]: Active | Activity (MM1.S [22]): 17.82% | Activity [23]: Tde | Activity (MM1.S [24]): Active | Activity [25]: inactive | Activity [26]: inactive | Activity [27]: inactive | Activity [28]: Active | Activity [29]: inactive | Activity [30]: Active
